Tests used:
Assay in all cases: NCI-60 SRB screen
Format in all cases: cell-based
[1] = tested on: MDA-MB-231/ATCC; details: Homo sapiens, 10^–5 Molar, read-out: Percent growth inhibition
How it was run: (§1)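 Testing used one 10^−5 M dose. Plates were incubated 48 h at 37 °C in 5% CO2 before fixation, staining with 0.4% (w/v) SRB in 1% acetic acid, solubilisation in trizma base and reading at […].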

[2] = tested on: OVCAR-4; details: Homo sapiens; OVCAR-4, 10^–5 Molar; read-out: Percent growth inhibition
How it was run: (§2)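 Percent growth inhibition at 10^−5 M, 48 h. Sulforhodamine B read-out at […] following cold TCA fixation; Tz plates fixed when compound was added.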

[3] = tested on: CAKI-1; details: Homo sapiens; CAKI-1, 10^–5 Molar; read-out: Percent growth inhibition
How it was run: as §2

[4] = tested on: OVCAR-5; details: Homo sapiens; OVCAR-5, 10^–5 Molar; read-out: Percent growth inhibition
How it was run: as §1

[5] = tested on: ACHN; details: Homo sapiens, 10^–5 Molar, read-out: Percent growth inhibition
How it was run: as §1

[6] = tested on: RXF 393; details: Homo sapiens, 48 h; RXF 393, 10^–5 Molar; read-out: Percent growth inhibition
How it was run: as §2

[7] = tested on: MDA-MB-468; details: Homo sapiens; MDA-MB-468, 10^–5 Molar; read-out: Percent growth inhibition
How it was run: as §2

[8] = tested on: SF-539; details: Homo sapiens; SF-539, 10^–5 Molar; read-out: Percent growth inhibition
How it was run: as §2

[9] = tested on: UACC-62; details: Homo sapiens; UACC-62, 10^–5 Molar; read-out: Percent growth inhibition
How it was run: as §1

[10] = tested on: SNB-19; details: Homo sapiens; SNB-19, 10^–5 Molar; read-out: Percent growth inhibition
How it was run: as §1

[11] = tested on: NCI/ADR-RES; details: Homo sapiens, 10^–5 Molar, read-out: Percent growth inhibition
How it was run: as §1

[12] = tested on: melanoma SK-MEL-5; details: Homo sapiens; SK-MEL-5, 10^–5 Molar; read-out: Percent growth inhibition
How it was run: as §1

[13] = tested on: A549/ATCC; details: Homo sapiens, 10^–5 Molar, read-out: Percent growth inhibition
How it was run: as §2

[14] = tested on: NCI-H522; details: Homo sapiens; NCI-H522, 10^–5 Molar; read-out: Percent growth inhibition
How it was run: as §2

[15] = tested on: NCI-H460; details: Homo sapiens; NCI-H460, 10^–5 Molar; read-out: Percent growth inhibition
How it was run: as §2

[16] = tested on: HS 578T; details: Homo sapiens, 10^–5 Molar, read-out: Percent growth inhibition
How it was run: as §2

[17] = tested on: SK-MEL-28; details: Homo sapiens; SK-MEL-28, 10^–5 Molar; read-out: Percent growth inhibition
How it was run: as §2

[18] = tested on: HCT-116; details: Homo sapiens; HCT-116, 10^–5 Molar; read-out: Percent growth inhibition
How it was run: as §2

[19] = tested on: U251; details: Homo sapiens, U-251; U251, 10^–5 Molar; read-out: Percent growth inhibition
How it was run: as §2

[20] = tested on: HOP-92; details: Homo sapiens; HOP-92, 10^–5 Molar; read-out: Percent growth inhibition
How it was run: as §2

[21] = tested on: HCC-2998; details: Homo sapiens; HCC-2998, 10^–5 Molar; read-out: Percent growth inhibition
How it was run: as §2

[22] = tested on: LOX IMVI; details: Homo sapiens, 10^–5 Molar, read-out: Percent growth inhibition
How it was run: as §1

[23] = tested on: EKVX; details: Homo sapiens, 10^–5 Molar, read-out: Percent growth inhibition
How it was run: as §2

[24] = tested on: BT-549; details: Homo sapiens; BT-549, 10^–5 Molar; read-out: Percent growth inhibition
How it was run: as §2

Row | SMILES | inhibition at 10 µM [1] | inhibition at 10 µM [2] | inhibition at 10 µM [3] | inhibition at 10 µM [4] | inhibition at 10 µM [5] | inhibition at 10 µM [6] | inhibition at 10 µM [7] | inhibition at 10 µM [8] | inhibition at 10 µM [9] | inhibition at 10 µM [10] | inhibition at 10 µM [11] | inhibition at 10 µM [12] | inhibition at 10 µM [13] | inhibition at 10 µM [14] | inhibition at 10 µM [15] | inhibition at 10 µM [16] | inhibition at 10 µM [17] | inhibition at 10 µM [18] | inhibition at 10 µM [20] | inhibition at 10 µM [22] | also measured
1 | CCn1cc(C(=O)O)c(=O)c2cc(F)c(N3CCN(C(=O)c4ccc(Br)cc4)C(C)C3)c(F)c21 (stereo not drawn) [Compound 7b, 7-(4-(4-Bromobenzoyl)-3-methylpiperazin-1-yl)-1-ethyl-6,8-difluoro-4-oxo-1,4-dihydroquinoline-3-carboxylic acid] | 13.3% | 16.9% | 13.6% | 2.96% | 2.27% | 6.35% | 3.31% | 9.67% | 17.5% | 4.45% | 9.07% | 1.22% | 1.07% | 10% | 1.2% | 4.22% |  |  |  |  | 
2 | CCn1cc(C(=O)NN=Cc2ccccc2)c(=O)c2cc(F)c(N3CCNC(C)C3)c(F)c21 (stereo not drawn) [Compound 3a, N'-Benzylidene-1-ethyl-6,8-difluoro-7-(3-methylpiperazin-1-yl)-4-oxo-1,4-dihydroquinoline-3-carbohydrazide] | 170% | 29.3% | 54.2% | 33% | 43.2% | 161% | 69.6% | 187% | 128% | 81.1% | 44% | 88.1% | 184% | 175% | 173% | 30.3% | 179% | 42.5% | 44.2% | 187% | inhibition at 10 µM [19]: 192%; inhibition at 10 µM [21]: 183%; inhibition at 10 µM [23]: 65.7%; inhibition at 10 µM [24]: 22.2%
3 | CCn1cc(C(=O)NN=Cc2ccc(Br)cc2)c(=O)c2cc(F)c(N3CCNC(C)C3)c(F)c21 (stereo not drawn) [Compound 3c, N'-(4-Bromobenzylidene)-1-ethyl-6,8-difluoro-7-(3-methylpiperazin-1-yl)-4-oxo-1,4-dihydroquinoline-3-carbohydrazide] | 45.2% | 18.3% | 31.5% | 5.97% | 11.2% | 38.8% | 17.5% | 28.6% |  | 45.5% | 16.7% | 17.6% | 54.7% | 21.5% | 151% | 26.9% | 8.78% | 32.3% | 38.8% | 178% | inhibition at 10 µM [19]: 98.6%; inhibition at 10 µM [21]: 74.1%; inhibition at 10 µM [23]: 13.1%; inhibition at 10 µM [24]: 8.32%
4 | CCn1cc(C(=O)O)c(=O)c2cc(F)c(N3CCN(CC(=O)Nc4ccc(Cl)cc4)C(C)C3)c(F)c21 (stereo not drawn) [Compound 5b, 7-(4-(2-((4-Chlorophenyl)amino)-2-oxoethyl)-3-methylpiperazin-1-yl)-1-ethyl-6,8-difluoro-4-oxo-1,4-dihydroquinoline-3-carboxylic acid] | 15.7% | 22.2% | 13.7% |  | 14% | 0.61% | 7.4% | 4.4% | 40.8% | 1.6% | 8.06% | 16.1% | 6.12% | 8.89% | 9.4% | 11.2% | 6.48% | 0.67% | 9.45% | 9.13% | inhibition at 10 µM [23]: 3.04%; inhibition at 10 µM [24]: 0.23%

— article PMC10940605, “Design, synthesis and in vitro anticancer activity of some new lomefloxacin derivatives” (Scientific Reports, 2024)
